In brackets after ≈: the same amount, converted by molar mass.
Experiments:
[1] = molecular target: T1, Tyrosine-protein kinase BTK (Homo sapiens, UniProt Q06187); assay: Inhibition of BTK in human whole blood assessed as suppression of BCR/anti-IgM/IgG-stimulated CD69 surface expression after 18 hrs with agitation by FITC-staining based FACS analysis; format: tissue-based
[2] = Protein binding in human serum; format: ADME; details: read-out: PPB (converted)
[3] = AUC in mouse at 10 mg/kg; format: ADME, organism-based; details: in vivo
[4] = Mutagenicity in Salmonella typhimurium by Ames test; format: toxicity; details: salmonella enterica subsp. enterica serovar typhimurium
[5] = molecular target: T1, Tyrosine-protein kinase BTK; assay: Inhibition of BTK in human PBM cells assessed as suppression of FCRgammaR/immune complex-stimulated TNFalpha production; format: cell-based
[6] = molecular target: T2, Tyrosine-protein kinase ITK/TSK (Homo sapiens, UniProt Q08881); assay: Inhibition of ITK in human peripheral T cells assessed as suppression of TCR/anti-CD3-stimulated protein catalyzed PLCgamma1 phosphorylation; format: cell-based, T-cell
T2 sequence (Q08881 whole entry): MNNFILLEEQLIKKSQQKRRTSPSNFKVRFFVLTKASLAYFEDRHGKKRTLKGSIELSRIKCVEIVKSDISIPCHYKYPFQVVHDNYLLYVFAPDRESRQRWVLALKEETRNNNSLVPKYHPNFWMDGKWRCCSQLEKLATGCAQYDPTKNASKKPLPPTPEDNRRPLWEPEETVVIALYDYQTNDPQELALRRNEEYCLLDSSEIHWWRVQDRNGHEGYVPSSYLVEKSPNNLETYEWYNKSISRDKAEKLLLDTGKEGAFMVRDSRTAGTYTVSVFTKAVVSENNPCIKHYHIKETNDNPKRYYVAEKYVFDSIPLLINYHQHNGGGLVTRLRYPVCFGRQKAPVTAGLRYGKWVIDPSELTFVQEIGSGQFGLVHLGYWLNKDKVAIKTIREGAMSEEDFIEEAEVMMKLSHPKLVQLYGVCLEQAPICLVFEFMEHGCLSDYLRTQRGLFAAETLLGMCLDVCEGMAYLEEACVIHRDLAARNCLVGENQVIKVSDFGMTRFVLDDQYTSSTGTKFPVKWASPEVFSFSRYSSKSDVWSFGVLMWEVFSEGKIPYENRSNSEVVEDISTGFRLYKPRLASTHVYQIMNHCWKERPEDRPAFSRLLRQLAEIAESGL

[7] = molecular target: T1, Tyrosine-protein kinase BTK; assay: Inhibition of BTK in human whole blood basophils assessed as suppression of FceRI/anti-IgE-stimulated CD63 surface expression; format: tissue-based
[8] = Protein binding in mouse plasma; format: ADME, cell-free; details: read-out: PPB (converted)
[9] = Protein binding in dog plasma; format: ADME, cell-free, Canis lupus familiaris; details: read-out: PPB (converted)
Cytochrome P450 2D6 = Cytochrome P450 2D6 (Homo sapiens, UniProt P10635); assay: Inhibition of CYP2D6 (unknown origin); format: ADME
Chain of Cytochrome P450 2D6 (P10635 whole entry): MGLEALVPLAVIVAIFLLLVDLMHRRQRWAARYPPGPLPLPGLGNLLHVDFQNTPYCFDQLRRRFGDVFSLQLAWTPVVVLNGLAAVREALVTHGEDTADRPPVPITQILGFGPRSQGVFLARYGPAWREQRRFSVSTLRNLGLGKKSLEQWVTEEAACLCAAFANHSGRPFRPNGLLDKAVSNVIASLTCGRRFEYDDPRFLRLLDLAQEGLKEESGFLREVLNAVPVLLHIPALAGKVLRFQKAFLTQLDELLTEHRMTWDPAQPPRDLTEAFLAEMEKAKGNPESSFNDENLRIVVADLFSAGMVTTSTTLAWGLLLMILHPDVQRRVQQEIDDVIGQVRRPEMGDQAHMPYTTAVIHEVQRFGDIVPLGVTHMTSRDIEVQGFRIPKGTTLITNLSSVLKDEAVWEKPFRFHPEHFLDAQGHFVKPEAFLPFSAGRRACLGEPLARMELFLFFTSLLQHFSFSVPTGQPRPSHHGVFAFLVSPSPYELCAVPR

Cytochrome P450 2C8 = molecular target: T3, Cytochrome P450 2C8 (Homo sapiens, UniProt P10632); assay: Inhibition of CYP2C8 (unknown origin); format: ADME
T3 sequence (P10632 whole entry): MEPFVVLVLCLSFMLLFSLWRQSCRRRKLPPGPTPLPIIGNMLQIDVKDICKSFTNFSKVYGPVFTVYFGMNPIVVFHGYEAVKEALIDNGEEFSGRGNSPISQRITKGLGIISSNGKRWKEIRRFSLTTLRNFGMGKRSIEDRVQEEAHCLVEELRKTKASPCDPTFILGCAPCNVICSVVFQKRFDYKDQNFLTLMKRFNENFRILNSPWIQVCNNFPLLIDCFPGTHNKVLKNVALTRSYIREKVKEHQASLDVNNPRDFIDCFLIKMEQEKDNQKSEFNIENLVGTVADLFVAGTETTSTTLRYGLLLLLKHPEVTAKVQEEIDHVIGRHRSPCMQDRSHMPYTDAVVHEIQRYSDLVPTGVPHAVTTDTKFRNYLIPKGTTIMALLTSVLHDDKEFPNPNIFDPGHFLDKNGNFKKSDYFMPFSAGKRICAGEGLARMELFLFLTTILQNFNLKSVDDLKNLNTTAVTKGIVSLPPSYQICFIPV

Cytochrome P450 2C9 = Cytochrome P450 2C9 (Homo sapiens, UniProt P11712); assay: Inhibition of CYP2C9 (unknown origin); format: ADME
Chain of Cytochrome P450 2C9 (P11712 whole entry): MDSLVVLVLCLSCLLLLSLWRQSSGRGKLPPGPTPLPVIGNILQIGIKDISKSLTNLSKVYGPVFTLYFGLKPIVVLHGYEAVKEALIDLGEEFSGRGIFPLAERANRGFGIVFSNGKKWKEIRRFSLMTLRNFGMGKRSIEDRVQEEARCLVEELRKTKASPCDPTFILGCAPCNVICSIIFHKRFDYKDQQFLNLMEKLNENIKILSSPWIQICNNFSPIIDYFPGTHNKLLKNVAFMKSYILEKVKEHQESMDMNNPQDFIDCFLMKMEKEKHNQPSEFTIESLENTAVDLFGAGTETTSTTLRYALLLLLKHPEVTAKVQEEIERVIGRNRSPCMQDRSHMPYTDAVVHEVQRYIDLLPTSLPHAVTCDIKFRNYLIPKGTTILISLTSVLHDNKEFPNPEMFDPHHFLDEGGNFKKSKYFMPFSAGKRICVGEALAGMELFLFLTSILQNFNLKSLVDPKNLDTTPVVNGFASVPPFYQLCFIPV

Cytochrome P450 2C19 = Cytochrome P450 2C19 (Homo sapiens, UniProt P33261); assay: Inhibition of CYP2C19 (unknown origin); format: ADME
Chain of Cytochrome P450 2C19 (P33261 whole entry): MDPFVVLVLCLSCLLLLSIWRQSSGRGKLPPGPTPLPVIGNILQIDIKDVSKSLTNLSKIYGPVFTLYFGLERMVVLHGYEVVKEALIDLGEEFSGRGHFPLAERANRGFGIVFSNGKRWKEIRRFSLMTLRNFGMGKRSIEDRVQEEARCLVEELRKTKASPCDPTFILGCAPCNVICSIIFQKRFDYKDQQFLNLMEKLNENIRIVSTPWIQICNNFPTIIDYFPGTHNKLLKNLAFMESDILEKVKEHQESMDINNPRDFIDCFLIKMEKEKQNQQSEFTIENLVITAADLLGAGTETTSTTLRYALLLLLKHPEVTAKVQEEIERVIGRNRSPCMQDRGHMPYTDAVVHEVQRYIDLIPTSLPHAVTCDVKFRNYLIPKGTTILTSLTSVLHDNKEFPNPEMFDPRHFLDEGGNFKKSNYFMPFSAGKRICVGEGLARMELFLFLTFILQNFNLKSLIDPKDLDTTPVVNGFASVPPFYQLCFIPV

Cytochrome P450 3A4 = Cytochrome P450 3A4 (Homo sapiens, UniProt P08684); assay: Inhibition of CYP3A4 (unknown origin); format: ADME
Chain of Cytochrome P450 3A4 (P08684 whole entry): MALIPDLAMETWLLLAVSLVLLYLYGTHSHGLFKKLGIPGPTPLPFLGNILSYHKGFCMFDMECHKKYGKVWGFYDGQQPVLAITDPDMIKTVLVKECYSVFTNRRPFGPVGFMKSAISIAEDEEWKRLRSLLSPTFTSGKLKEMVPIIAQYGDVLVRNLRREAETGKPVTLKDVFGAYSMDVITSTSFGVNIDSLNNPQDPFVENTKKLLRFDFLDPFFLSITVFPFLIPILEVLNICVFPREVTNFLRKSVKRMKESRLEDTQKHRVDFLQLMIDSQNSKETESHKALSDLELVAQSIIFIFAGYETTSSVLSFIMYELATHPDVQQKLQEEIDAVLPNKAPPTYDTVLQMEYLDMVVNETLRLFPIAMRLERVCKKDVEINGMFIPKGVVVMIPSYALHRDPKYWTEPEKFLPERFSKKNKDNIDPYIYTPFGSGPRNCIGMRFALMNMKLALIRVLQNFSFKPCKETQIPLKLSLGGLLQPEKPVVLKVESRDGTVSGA

[10] = Permeability of the compound at pH 7.4 by PAMPA assay; format: ADME; details: read-out: permeability
[11] = Solubility of the compound in fasted state stimulated intestinal fluid; format: ADME; details: fasted state simulated intestinal fluid (FaSSIF)
[12] = Solubility of the compound in fed state stimulated intestinal fluid; format: ADME; details: fed state simulated intestinal fluid (FeSSIF)
[13] = AUC in mouse at 6 mg/kg, po; format: ADME, organism-based; details: in vivo
[14] = Half life in mouse at 3 mg/kg, iv; format: ADME, organism-based; details: in vivo
[15] = Clearance in mouse at 3 mg/kg, iv; format: ADME, organism-based; details: in vivo
[16] = Volume of distribution at steady state in mouse at 3 mg/kg, iv; format: ADME, organism-based; details: in vivo, read-out: Vdss
[17] = Tmax in rat at 5 mg/kg, po; format: ADME, organism-based; details: in vivo
[18] = AUC in rat at 5 mg/kg, po; format: ADME, organism-based; details: in vivo
[19] = Half life in rat at 2 mg/kg, iv; format: ADME, organism-based; details: in vivo
[20] = Clearance in rat at 2 mg/kg, iv; format: ADME, organism-based; details: in vivo
[21] = Oral bioavailability in rat at 5 mg/kg; format: ADME, organism-based; details: in vivo
[22] = Cmax in cynomolgus monkey at 4 mg/kg, po; format: ADME, organism-based, Macaca fascicularis; design: dose 4 mg/kg, route oral; details: in vivo
[23] = Half life in cynomolgus monkey at 2 mg/kg, iv; format: ADME, organism-based, Macaca fascicularis; details: in vivo
[24] = MRT in cynomolgus monkey at 2 mg/kg, iv; format: ADME, organism-based, Macaca fascicularis; details: in vivo
[25] = AUC in dog at 2 mg/kg, po; format: ADME, organism-based, Canis lupus familiaris; details: in vivo
[26] = Clearance in dog at 1 mg/kg, iv; format: ADME, organism-based, Canis lupus familiaris; details: in vivo
[27] = Oral bioavailability in dog at 2 mg/kg; format: ADME, organism-based, Canis lupus familiaris; details: in vivo
[28] = Drug uptake in rat brain relative to plasma concentration; format: ADME
Mus musculus = assay: Antiathritis activity in anticollagen antibody-induced arthritis BALB/c mouse model assessed as reduction in LPS-induced paw swelling at 20 mg/kg, po qd followed by LPS addition on day 3 measured after 11 days relative to control; format: functional; design: scale not given: the % may be the effect or the level left
[29] = molecular target: T1, Tyrosine-protein kinase BTK; assay: Inhibition of BTK in human Ramos-B cells assessed as suppression of BCR/anti-IgM-stimulated Ca2+ flux after 1 hr incubation in dark by FLIPR1 assay

T1 sequence (Q06187 whole entry): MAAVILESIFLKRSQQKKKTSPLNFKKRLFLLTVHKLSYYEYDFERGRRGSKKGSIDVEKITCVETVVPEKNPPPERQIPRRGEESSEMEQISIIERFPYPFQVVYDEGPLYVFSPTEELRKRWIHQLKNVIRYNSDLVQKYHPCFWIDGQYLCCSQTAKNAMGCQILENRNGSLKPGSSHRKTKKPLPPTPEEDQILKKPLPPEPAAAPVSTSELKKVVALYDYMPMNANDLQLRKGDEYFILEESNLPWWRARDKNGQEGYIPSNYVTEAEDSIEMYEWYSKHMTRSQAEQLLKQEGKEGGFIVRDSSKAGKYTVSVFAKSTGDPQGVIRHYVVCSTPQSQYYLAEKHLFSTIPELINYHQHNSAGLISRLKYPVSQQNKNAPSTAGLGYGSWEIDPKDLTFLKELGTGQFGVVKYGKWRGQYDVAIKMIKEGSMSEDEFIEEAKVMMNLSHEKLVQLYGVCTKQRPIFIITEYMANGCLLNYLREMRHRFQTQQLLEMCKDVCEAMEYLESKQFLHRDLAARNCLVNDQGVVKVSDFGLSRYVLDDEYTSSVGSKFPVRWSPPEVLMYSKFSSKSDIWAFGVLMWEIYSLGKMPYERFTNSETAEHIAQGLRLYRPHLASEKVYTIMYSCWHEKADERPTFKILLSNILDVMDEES

Cc1c(-c2c(F)cc(C(N)=O)c3[nH]c4c(c23)CC[C@H](C(C)(C)O)C4)cccc1-n1c(=O)c2cccc(F)c2n(C)c1=O (atropisomer R) [BMS-986142]
IC50 [1]: 90 nM
fraction unbound [2]: 0.009
AUC [3]: 39 µM·h
Activity [4]: Non-Toxic
IC50 [5]: 3 nM
IC50 [6]: 410 nM
IC50 [7]: 89 nM
fraction unbound [8]: 0.015
fraction unbound [9]: 0.009
IC50 (Cytochrome P450 2D6): > 40000 nM
IC50 (Cytochrome P450 2C8): 2600 nM
IC50 (Cytochrome P450 2C9): 17100 nM
IC50 (Cytochrome P450 2C19): 32200 nM
IC50 (Cytochrome P450 3A4): 8500 nM
Papp [10]: 72.5 ×10⁻⁶ cm/s
solubility [11]: 18 µg/mL (≈ 31.4 µM)
solubility [12]: 368 µg/mL (≈ 643 µM)
AUC [13]: 39 µM·h
half-life [14]: 3.4 h
clearance [15]: 4.1 mL/min/kg
Vd [16]: 1.2 L/kg
Tmax [17]: 3 h
AUC [18]: 23 µM·h
half-life [19]: 3.6 h
clearance [20]: 4.2 mL/min/kg
bioavailability [21]: 67%
Cmax [22]: 850 nM
half-life [23]: 5.1 h
MRT [24]: 4.7 h
AUC [25]: 16 µM·h
clearance [26]: 3.2 mL/min/kg
bioavailability [27]: 100%
Drug uptake [28]: < 5%
Activity (Mus musculus): 100%
IC50 [29]: 9 nM

Source: ChEMBL document CHEMBL3856250, “Discovery of 6-Fluoro-5-(R)-(3-(S)-(8-fluoro-1-methyl-2,4-dioxo-1,2-dihydroquinazolin-3(4H)-yl)-2-methylphenyl)-2-(S)-(2-hydroxypropan-2-yl)-2,3,4,9-tetrahydro-1H-carbazole-8-carboxamide (BMS-986142): A Reversible Inhibitor of Bruton's Tyrosine Kinase (BTK) Conformationally Constrained by Two …” (J Med Chem, 2016)
